Experimental data as given in article PMC3368886, “ATPase Cycle and DNA Unwinding Kinetics of RecG Helicase” (PLoS ONE, 2012).
pKd, pKi: −log10 of the molar value.

What was measured:
RecG [1] = biological target: T1, RecG (Thermotoga maritima, UniProt Q9WY48); assay: Steady-state ATPase rate measurements with phosphate biosensor MDCC-PBP; type: biochemical; details: for pKi: 10 µM ATP, varying inhibitor; for tightness of binding (competitive inhibition): result in words
T1 construct: made in house
T1 sequence (Q9WY48 1-780): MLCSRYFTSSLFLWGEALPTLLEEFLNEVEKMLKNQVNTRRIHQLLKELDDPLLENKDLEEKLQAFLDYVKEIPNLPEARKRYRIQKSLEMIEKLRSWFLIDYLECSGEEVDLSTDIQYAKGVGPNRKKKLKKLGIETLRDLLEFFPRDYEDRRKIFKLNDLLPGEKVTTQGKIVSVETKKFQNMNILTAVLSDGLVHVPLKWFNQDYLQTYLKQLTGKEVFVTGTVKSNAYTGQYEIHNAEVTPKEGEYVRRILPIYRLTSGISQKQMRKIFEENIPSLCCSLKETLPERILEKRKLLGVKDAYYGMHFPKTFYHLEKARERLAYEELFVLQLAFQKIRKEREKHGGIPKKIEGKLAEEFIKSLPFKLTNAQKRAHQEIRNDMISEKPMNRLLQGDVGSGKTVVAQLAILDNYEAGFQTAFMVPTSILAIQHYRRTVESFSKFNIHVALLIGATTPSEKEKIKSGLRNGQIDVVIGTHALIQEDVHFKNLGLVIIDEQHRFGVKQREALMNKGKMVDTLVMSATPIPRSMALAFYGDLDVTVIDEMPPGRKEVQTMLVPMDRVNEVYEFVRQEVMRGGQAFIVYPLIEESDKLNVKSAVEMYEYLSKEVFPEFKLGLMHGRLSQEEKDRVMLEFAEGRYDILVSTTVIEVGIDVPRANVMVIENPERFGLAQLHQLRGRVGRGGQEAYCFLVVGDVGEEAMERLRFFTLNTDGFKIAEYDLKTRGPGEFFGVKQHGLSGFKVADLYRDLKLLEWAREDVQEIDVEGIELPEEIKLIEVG
Description: Steady-state measurements were made to gain an overall assessment of the reaction and the affinities of various nucleotides before investigating the individual steps in the ATPase cycle. A two-strand DNA junction, which contains two 20-bp regions of complementary and non-complementary sequences (A40:B40 Figure 1 and Table S1), was used in all these measurements. This forms a Y-shape structure and RecG translocates one single-stranded arm, but then remains bound to the end of the junction still hydrolyzing ATP [10].
All reactions with RecG and DNA were done at 20°C in a buffer containing 50 mM Tris⋅acetate (pH 8.0), 30 mM potassium acetate, 3 mM magnesium acetate and 1 mM DTT. ATPase measurements using MDCC-PBP were taken in the presence of a Pi mop, as described above. Steady-state ATPase measurements were taken in a solution (60 µl) at 20°C, containing 10 nM RecG, 500 nM DNA junction (A40∶B40, see Table S1) and 10 µM MDCC-PBP with varying nucleotide concentrations as substrate or inhibitor [23].

RecG⋅DNA(A40:B40) [2] = biological target: T2, RecG⋅DNA(A40:B40) (Thermotoga maritima, UniProt Q9WY48); assay: Single turnover mant fluorescence, excess RecG⋅DNA over mantATP; type: biochemical; details: excess RecG⋅DNA(A40:B40)
T2 construct: made in house
T2 sequence (Q9WY48 1-780): T1 sequence (Q9WY48 1-780)
Description: Extra information relating to changes in a single ATPase cycle can be obtained by mixing excess RecG⋅DNA(A40:B40) with mantATP (Figure 4A). […] The first change in fluorescence is presumably due to binding. After fitting to a double exponential, the observed rate constant for the initial change was linearly dependent on RecG concentration over the small range possible (0.5 µM –2.5 µM), limited by protein precipitation at higher concentrations. Due to the low concentrations, a hyperbolic dependence would not be observed. The observed rate constant of the second increase in fluorescence, 0.22 (±0.05) s^−1 (Figure 4A), was independent of RecG concentration. This second phase is likely to be due to the cleavage step, leading to the formation of bound mantADP.
Figure 4 Kinetic measurement of mantATP with excess of RecG and DNA: binding, hydrolysis and Pi release. The concentrations for all experiments were 0.5 µM mantATP, 2.5 µM RecG, 5 µM DNA (A40:B40) and 10 µM MDCC-PBP (for Pi measurement). All measurements were carried out at 20°C in the buffer described in Materials and Methods. (A) Time course of mant fluorescence (solid line), mantADP formation (circles) and Pi release (dashed line), measured as described in materials and methods. […] (B) Simulation of these time courses, based upon a global model for a single turnover of mantATP as described in the text. (C) The time course of mant fluorescence upon mixing 0.5 µM mantATP and 2.5 µM RecG with 5 µM DNA junction (A40:B40) after a first mixing of 5 µM RecG and 1 µM mantATP and aging for 1 s.
(§1) Stopped-flow experiments were performed in a HiTech SF61DX2 apparatus (TgK Scientific Ltd, Bradford-on-Avon, UK) with a mercury-xenon light source and HiTech KinetAsyst 3 or Kinetic Studio 1 software. For MDCC-PBP fluorescence, the excitation wavelength used was 436 nm and a 455 nm cut-off filter (Schott glass) used to collect emitted light. The signal was calibrated using known concentrations of Pi. The solutions contained the Pi mop, to minimize phosphate contamination and comprising 0.01 unit ml^−1 bacterial purine nucleoside phosphorylase and 200 µM 7-methylguanosine. For mant fluorescence, 366 nm was used to excite and a 400 nm cut-off filter (Schott glass) used to collect light. Measurements of Cy3 fluorescence used 547 nm excitation and a 570 nm cut-off filter. In experiments described, the quoted concentrations are those in the mixing chamber, except where stated. Data were fitted to theoretical curves using the HiTech software or Grafit.

RecG⋅DNA(A40:B40) [3] = biological target: T2, RecG⋅DNA(A40:B40); assay: Stopped-flow mant fluorescence: mant nucleotide binding to RecG⋅DNA, pseudo-first-order
Description: MantATP binding to RecG⋅DNA(A40:B40) was measured under pseudo-first-order conditions, that is mantATP in large excess over the protein. Using the stopped-flow apparatus, several concentrations of mantATP were rapidly mixed with RecG⋅DNA and fluorescence followed with time. Each trace was fitted by a single exponential (Figure 3A) and the concentration dependence of the observed rate constants were fit well by a hyperbola (Figure 3B). […] As mantATP is also hydrolyzed, the rate of the forward reaction needs to be included, in this case limited by the cleavage step 2, as described later. The fit gives 1/K 1a as 24 (±4) µM, k +1b + k −1b + k +2 as 26.1 (±1.8) s^−1 and the intercept gives k −1b + k +2 as <1 s^−1. Given that k +2 is 0.2 s^–1 (see below), k −1b is <0.8 s^−1. Potentially, an alternative explanation for such a hyperbolic relationship could be preferential binding of either the 2′- or 3′-isomer of mantATP and then isomerization of the non-favored isomer. However, the observed rates in these measurements were several orders of magnitude faster than the likely isomerization rate. In order to assess whether the two isomers of mantATP and their interconversion are factors in any fluorescence traces for mantATP, an equivalent measurement was made using 3′-mant-2′-deoxyATP.
Figure 3 MantATP binding to RecG⋅DNA. MantATP at the micromolar concentrations shown was mixed in the stopped flow apparatus with 0.5 µM RecG and 2.5 µM DNA Junction (A40:B40) at 20°C in the buffer described in materials and methods. Individual traces (offset from each other) were fitted to single exponentials and the dependence of the rate constants on concentration was then fitted by a hyperbola. The points shown are averages of at least 3 measurements. The fit gives 1/K 1a as 24 (±4) µM and k +1b + k− 1b + k +2 as 26.1 (±1.8) s^−1 and the intercept was <1 s^–1 (Scheme in Figure 2B).
MantADP binding to RecG⋅DNA complex was measured under pseudo-first order conditions by stopped-flow fluorescence.
Figure 5 MantADP binding kinetics to RecG⋅DNA. MantADP at various concentrations was mixed in the stopped flow apparatus with 0.5 µM RecG and 2.5 µM DNA (A40:B40) under the conditions of Figure 4. Traces (not shown) were fitted by single exponentials. The rate constants are shown as a function of concentration and the best linear fit, gives a slope of 1.1 (±0.4) µM^−1s^−1 and an intercept of <1 s^−1.
as §1

RecG [4] = biological target: T1, RecG; assay: Titrations of RecG into fluorescent nucleotides in the absence of DNA; type: binding
Description: The two phases of this fluorescence increase with excess RecG⋅DNA would therefore relate to formation of bound mantATP (1.5-fold intensity increase relative to free nucleotide) and bound mantADP (4.9-fold). This interpretation was supported by titrations of RecG into the fluorescent nucleotides in the absence of DNA.
Steady-state fluorescence was measured using a Cary Eclipse fluorimeter (Varian) with a xenon light source. Absorbance spectroscopy was performed using a Beckman DU640 spectrophotometer.

RecG [5] = biological target: T1, RecG; assay: Phosphate-water oxygen exchange during hydrolysis; type: biochemical; details: DNA present (A40∶B40), γ-18O3 nucleotide, 25°C
Description: In order to get information about the reverse of cleavage step 2 (scheme in Figure 2A), phosphate-water oxygen exchange measurements were done using (γ-^18O3)mantATP. Intermediate exchange can occur between terminal oxygens of the nucleotide and water during hydrolysis, giving information about the value of k +3 /k −2, as previously described. In this case, (γ-^18O3)mantATP was used as substrate and partial hydrolysis occurred in the presence of RecG⋅DNA, as described in the materials and methods section. The Pi had very similar distribution of oxygen-18 as with (γ-^18O3)mantATP, consistent with essentially little reversal of the cleavage step (k +3 /k −2≥9). This is consistent with a rapid release of Pi.
For intermediate exchange during ATP hydrolysis, 0.5 µM RecG and 1 mM (γ-^18O3)ATP or (γ-^18O3)mantATP were incubated for 10 min (+1 µM DNA A40∶B40, Table S1) or 20 min (- DNA) at 25°C in a volume of 100 µl in the buffer described below. Pi was analyzed for distribution of different ^18O-labeled species on a mass spectrometer as described previously, [37] except that during purification, the ^18O-labeled Pi was detected by MDCC-PBP, rather than radioactive tracers.
Supplementary file pone.0038270.s005.pdf: Table S2 Oxygen exchange during ATP or mantATP hydrolysis by RecG: distributions of oxygen-18 in the Pi product. Experiments were performed as described in Materials and Methods. The data were corrected for isotopic enrichment of the starting nucleotide, 93% for (γ-^18O3)mantATP and 98% for (γ-^18O3) ATP. […] Each distribution is the average of three mass spectral assays. Thus the distributions are for the product Pi as though the starting enrichment was 100%. In all cases there was very little oxygen exchange as shown by the large peak of (^18O3)Pi, in which all three γ-oxygens of ATP are retained. The distributions were then used to compute the ratio of rate constants for Pi release (k +3) and on-enzyme ATP resynthesis (k −2) as in Figure 2 [14], [37].

[6] = 500 nM DNA junction (A40:B40), 20°C
[7] = 20°C, 10 nM RecG, 500 nM DNA junction (A40:B40)

Molecule: Nc1ncnc2c1ncn2[C@@H]1O[C@H](COP(=O)(O)OP(=O)(O)NP(=O)(O)O)[C@@H](O)[C@H]1O [AMPPNP]
- pKi (RecG [1]; [6]): 4.36
- tightness of binding (competitive inhibition) (RecG [1]): bound weakly

Molecule: Nc1ncnc2c1ncn2[C@@H]1O[C@H](CO[P@](=O)(O)O[P@](=O)(O)O[P@@](=O)(O)S)[C@@H](O)[C@H]1O [ATPγS]
- pKi (RecG [1]; [6]): 6.05
- tightness of binding (competitive inhibition) (RecG [1]): bound tightly
- rate of hydrolysis (RecG [1]; slowly hydrolyzed analogue): 0.1 s⁻¹

Molecule: CNc1ccccc1C(=O)O[C@H]1C[C@H](n2cnc3c(N)ncnc32)O[C@@H]1COP(=O)(O)OP(=O)(O)O [Mant-deoxyADP]
- pKi (RecG [1]; [6]): 7.00

Molecule: CNc1ccccc1C(=O)O[C@H]1C[C@H](n2cnc3c(N)ncnc32)O[C@@H]1COP(=O)(O)OP(=O)(O)OP(=O)(O)O [Mant-deoxyATP, 3′-mant-2′-deoxyATP]
- K m (RecG [1]; [7]): 3.1 (±1.4) µM
- k cat (RecG [1]; [7]): 1.3 (±0.5) s^−1

Molecule: CNc1ccccc1C(=O)O[C@H]1[C@@H](O)[C@H](n2cnc3c(N)ncnc32)O[C@@H]1COP(=O)(O)OP(=O)(O)O [mantADP]
- fluorescence intensity increase of bound nucleotide relative to free nucleotide (RecG⋅DNA(A40:B40) [2]): 4.9 fold
- pKi (RecG [1]; [6]): 7.52
- k +4 (mantADP dissociation rate constant, intercept) (RecG⋅DNA(A40:B40) [3]; 20°C, linear fit): < 1 s⁻¹
- pKd (RecG⋅DNA(A40:B40) [3]; mantADP with RecG⋅DNA, used as model assumption): > 7.30
- increase in fluorescence on binding to RecG⋅DNA (RecG⋅DNA(A40:B40) [3]; same conditions as hydrolysis and Pi release measurements): 4.5 fold
- increase in fluorescence on titration with RecG (RecG [4]): 4.8 fold

Molecule: (γ-^18O3)mantATP
- k +3 /k −2 (RecG [5]): ≥ 9
